{
  "source": "patent US8999957B2",
  "about": "“Heterocyclic compounds as ERK inhibitors” (Merck Sharp & Dohme Corp., priority 2010, dated 2015)",
  "data": [
    {"molecular_target": "fully phosphorylated, active Mouse ERK2 protein (Mus musculus (Mouse), UniProt P63085)", "sequence (P63085 whole entry)": "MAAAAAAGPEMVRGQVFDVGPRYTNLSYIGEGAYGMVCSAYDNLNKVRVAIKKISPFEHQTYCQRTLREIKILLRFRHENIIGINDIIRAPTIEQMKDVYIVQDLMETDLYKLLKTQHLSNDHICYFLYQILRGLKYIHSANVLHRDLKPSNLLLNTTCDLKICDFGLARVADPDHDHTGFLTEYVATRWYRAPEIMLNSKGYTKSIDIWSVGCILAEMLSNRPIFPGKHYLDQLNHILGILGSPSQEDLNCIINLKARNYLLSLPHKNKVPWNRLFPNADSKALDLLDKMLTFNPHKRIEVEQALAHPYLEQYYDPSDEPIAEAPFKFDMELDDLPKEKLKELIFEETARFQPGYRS", "assay": "Active ERK2 (aERK) IMAP assay, condition 1", "assay_type": "biochemical", "settings": "aERK assay condition 1, 30 μM ATP", "protocol": "(§1) Active ERK2 (aERK) Assay: (Unless Indicated Otherwise, the Data Provided for aERK was obtained using Condition 1)\nActivated ERK2 activity was also determined in the IMAP assay format using the procedure outlined above. […] Reactions proceeded for 30 minutes before termination by addition of 60 μl IMAP detection beads in binding buffer. Plates were read as above after 30 minute binding equilibration.", "units": {"IC50": "nM"}, "values": [
      {"smiles": "CC(C)Oc1ccc(-c2n[nH]c3ccc(C(=O)N[C@@H]4CNC[C@H](c5ccccc5)C4)cc23)cc1", "IC50": 45.1},
      {"smiles": "Cn1cc(-c2n[nH]c3ccc(C(=O)N[C@@H]4CCCN(Cc5ccccc5F)C4)cc23)ccc1=O", "IC50": 21.1},
      {"smiles": "COc1cccc(F)c1CN1CCCC(NC(=O)c2ccc3[nH]nc(-c4ccnc(C)c4)c3c2)C1C", "note": "(stereo not shown)", "IC50": 66.9},
      {"smiles": "Cc1cc(-c2n[nH]c3ccc(C(=O)N[C@@H]4CCCN(CC(F)(F)c5ccccc5F)C4)cc23)ccn1", "IC50": 170},
      {"smiles": "Cc1cc(-c2n[nH]c3ccc(C(=O)N[C@@H]4CCCN(CC(F)(F)c5ccccc5)C4)cc23)ccn1", "IC50": 76.5},
      {"smiles": "O=C(NC1CCCCN(CCc2cccc3ccccc23)C1)c1ccc2[nH]nc(-c3ccncc3)c2c1", "note": "(stereo not shown)", "IC50": 12.9},
      {"smiles": "O=C(NC1CCCCN(CCc2cccc(F)c2)C1)c1ccc2[nH]nc(-c3ccncc3)c2c1", "note": "(stereo not shown)", "IC50": 13.4},
      {"smiles": "COc1cccc(F)c1CN1CCC[C@@H](NC(=O)c2ccc3[nH]nc(-c4ccc5ncsc5c4)c3c2)C1", "IC50": 28.2},
      {"smiles": "CCc1nnc2ccc(-c3n[nH]c4ccc(C(=O)N[C@@H]5CCCN(Cc6c(F)cccc6OC)C5)cc34)cn12", "IC50": 70.9},
      {"smiles": "CN1CC(NC(=O)c2ccc3[nH]nc(-c4ccc5nccn5c4)c3c2)CCC1C1CC1", "note": "(stereo not shown)", "IC50": 395},
      {"smiles": "COc1cccc(F)c1CN1CC(NC(=O)c2ccc3[nH]nc(-c4ccc5nccn5c4)c3c2)CCC1C1CC1", "note": "(stereo not shown)", "IC50": 49.3},
      {"smiles": "O=C(N[C@@H]1CCCN(Cc2ncon2)C1)c1ccc2[nH]nc(-c3ccncc3)c2c1", "IC50": 50.1},
      {"smiles": "O=C(NC1CN(Cc2ccccc2F)CC(F)(F)C1)c1ccc2[nH]nc(-c3ccncc3)c2c1", "note": "(stereo not shown)", "IC50": 127},
      {"smiles": "O=C(NC1CN(Cc2ccccc2)CC(F)(F)C1)c1ccc2[nH]nc(-c3ccncc3)c2c1", "note": "(stereo not shown)", "IC50": 144},
      {"smiles": "O=C(NC1CCCCN(CCc2ccc(F)cc2)C1)c1ccc2[nH]nc(-c3ccncc3)c2c1", "note": "(stereo not shown)", "IC50": 98.1},
      {"smiles": "COC(=O)[C@H]1CC[C@@H](NC(=O)c2ccc3[nH]nc(-c4ccncc4)c3c2)CN1Cc1ccccc1", "IC50": 133},
      {"smiles": "O=C(CN1CCCCC(NC(=O)c2ccc3[nH]nc(-c4ccncc4)c3c2)C1)c1ccccc1", "note": "(stereo not shown)", "IC50": 34.8},
      {"smiles": "COc1cccc(F)c1CN1CCC[C@@H](NC(=O)c2ccc3[nH]nc(-c4ccc5nsnc5c4)c3c2)C1", "IC50": 175},
      {"smiles": "COc1cccc(F)c1CN1CCC[C@@H](NC(=O)c2ccc3[nH]nc(-c4ccc5nonc5c4)c3c2)C1", "IC50": 301},
      {"smiles": "COc1cccc(F)c1CN1CCC[C@@H](NC(=O)c2ccc3[nH]nc(-c4ccc5nc(C(F)(F)F)nn5c4)c3c2)C1", "IC50": 822},
      {"smiles": "COc1cccc(F)c1CN1CCC[C@@H](NC(=O)c2ccc3[nH]nc(-c4nc5ccccc5s4)c3c2)C1", "IC50": 296},
      {"smiles": "CN1CC(Cc2ccccc2)CC(NC(=O)c2ccc3[nH]nc(-c4ccncc4)c3c2)C1", "note": "(stereo not shown)", "IC50": 8.34},
      {"smiles": "CN1CC(Cc2c(F)cccc2F)CC(NC(=O)c2ccc3[nH]nc(-c4ccc5nn(C)cc5c4)c3c2)C1", "note": "(stereo not shown)", "IC50": 1.4},
      {"smiles": "CCN1CC(Cc2c(F)cccc2F)CC(NC(=O)c2ccc3[nH]nc(-c4ccc5nn(C)cc5c4)c3c2)C1", "note": "(stereo not shown)", "IC50": 3.09},
      {"smiles": "Cc1nc2ccc(-c3n[nH]c4ccc(C(=O)N[C@@H]5C[C@H](Cc6c(F)cccc6F)CN(C)C5)cc34)cn2n1", "IC50": 1.45},
      {"smiles": "Cc1nc2ccc(-c3n[nH]c4ccc(C(=O)N[C@@H]5C[C@@H](Cc6c(F)cccc6F)CN(C)C5)cc34)cn2n1", "IC50": 47.6},
      {"smiles": "CN1C[C@H](Cc2c(F)cccc2F)C[C@H](NC(=O)c2ccc3[nH]nc(-c4ccn5ccnc5c4)c3c2)C1", "IC50": 1.59},
      {"smiles": "CN1C[C@@H](Cc2c(F)cccc2F)C[C@H](NC(=O)c2ccc3[nH]nc(-c4ccn5ccnc5c4)c3c2)C1", "IC50": 150},
      {"smiles": "CN1CC(Cc2c(F)cccc2F)CC(NC(=O)c2ccc3[nH]nc(-c4ccn5ncnc5c4)c3c2)C1", "note": "(stereo not shown)", "IC50": 3.83},
      {"smiles": "CN1C[C@@H](Cc2c(F)cccc2F)C[C@@H](NC(=O)c2ccc3[nH]nc(-c4ccc5nonc5c4)c3c2)C1", "IC50": 8.82},
      {"smiles": "CN1C[C@H](Cc2c(F)cccc2F)C[C@@H](NC(=O)c2ccc3[nH]nc(-c4ccc5nonc5c4)c3c2)C1", "IC50": 1000},
      {"smiles": "CN1CC(Cc2c(F)cccc2F)CC(NC(=O)c2ccc3[nH]nc(-c4nc5ccccc5s4)c3c2)C1", "note": "(stereo not shown)", "IC50": 22.4},
      {"smiles": "CN1CC(Cc2c(F)cccc2F)CC(NC(=O)c2ccc3[nH]nc(-c4ccc5ncsc5c4)c3c2)C1", "note": "(stereo not shown)", "IC50": 2.71},
      {"smiles": "CN1CC(Cc2c(F)cccc2F)CC(NC(=O)c2ccc3[nH]nc(-c4ccc5nsnc5c4)c3c2)C1", "note": "(stereo not shown)", "IC50": 3.23},
      {"smiles": "Cn1cc2cc(-c3n[nH]c4ccc(C(=O)N[C@H]5CCN[C@H](Cc6ccccc6)C5)cc34)ccc2n1", "IC50": 33.8},
      {"smiles": "Cc1cc(-c2n[nH]c3ccc(C(=O)NC4CC(Cc5c(F)cccc5F)CN(C)C4)cc23)ccn1", "note": "(stereo not shown) [N-(5-(2,6-difluorobenzyl)-1-methylpiperidin-3-yl)-3-(2-methylpyridin-4-yl)-1H-indazole-5-carboxamide]", "IC50": 4.8},
      {"smiles": "COc1cccc(F)c1CN1C[C@H](NC(=O)c2ccc3[nH]nc(-c4ccnc(C)c4)c3c2)CC[C@H]1C(=O)N1CCC(O)CC1", "note": "[N-{(3R,6S)-1-(2-fluoro-6-methoxybenzyl)-6-[(4-hydroxypiperidin-1-yl)carbonyl]piperidin-3-yl}-3-(2-methylpyridin-4-yl)-1H-indazole-5-carboxamide]", "IC50": 14.6},
      {"smiles": "COc1cccc(F)c1CN1C[C@H](NC(=O)c2ccc3[nH]nc(-c4ccc5nccn5c4)c3c2)C[C@H](C(F)(F)F)C1", "note": "[drawing 317]", "IC50": 18},
      {"smiles": "O=C(N[C@@H]1CC[C@@H](C(=O)NCc2ccccc2)N(Cc2ccccc2)C1)c1ccc2[nH]nc(-c3ccncc3)c2c1", "note": "[drawing 352]", "IC50": 47.5},
      {"smiles": "CCNC(=O)[C@@H]1CC[C@@H](NC(=O)c2ccc3[nH]nc(-c4ccncc4)c3c2)CN1Cc1ccccc1", "note": "[drawing 353]", "IC50": 48.3},
      {"smiles": "COc1cccc(F)c1CN1C[C@H](NC(=O)c2ccc3[nH]nc(-c4ccc5nccn5c4)c3c2)C[C@H](C(F)(F)F)C1", "note": "[drawing 377]", "IC50": 4.46},
      {"smiles": "CNC(=O)[C@@H]1CC[C@@H](NC(=O)c2ccc3[nH]nc(-c4ccncc4)c3c2)CN1Cc1c(F)cccc1OC", "note": "[drawing 383]", "IC50": 2.41}
    ]},
    {"molecular_target": "fully phosphorylated, mouse aERK2 enzyme (Mus musculus (Mouse), UniProt P63085)", "sequence (P63085 whole entry)": "as above", "assay": "Active ERK2 (aERK) IMAP-FP assay, condition 2", "assay_type": "biochemical", "settings": "aERK assay condition 2, 30 uM ATP; read-out: aERK IC50", "protocol": "as §1\n(§2) Activated ERK2 activity was determined in an IMAP-FP assay (Molecular Devices). […] Phosphorylation reactions were allowed to proceed for 40-45 minutes and were immediately quenched by the addition of 60 μL IMAP detection beads (1:1000 dilutions) in IMAP binding buffer. Plates were read on EnVision reader after 30 minutes binding equilibration.", "units": {"IC50": "nM"}, "values": [
      {"smiles": "O=C(N[C@@H]1CCCN(CC2CC2)C1)c1ccc2[nH]nc(-c3ccncc3)c2c1", "IC50": 206},
      {"smiles": "CN(C)C(=O)C(c1ccccc1F)N1CCC[C@@H](NC(=O)c2ccc3[nH]nc(-c4ccncc4)c3c2)C1", "note": "(single isomer, unassigned) [N-((R)-1-((R or S)-2-(dimethylamino)-1-(2-fluorophenyl)-2-oxoethyl)piperidin-3-yl)-3-(pyridin-4-yl)-1H-indazole-5-carboxamide]", "IC50": 26.4},
      {"smiles": "NC(=O)C(c1ccccc1F)N1CCC[C@@H](NC(=O)c2ccc3[nH]nc(-c4ccncc4)c3c2)C1", "note": "(single isomer, unassigned) [N-((R)-1-((R or S)-2-amino-1-(2-fluorophenyl)-2-oxoethyl)-piperidin-3-yl)-3-(pyridin-4-yl)-1H-indazole-5-carboxamide]", "IC50": 72.2},
      {"smiles": "CNC(=O)C(c1ccccc1F)N1CCC[C@@H](NC(=O)c2ccc3[nH]nc(-c4ccncc4)c3c2)C1", "note": "(single isomer, unassigned) [drawing 501, N-((R)-1-((R or S)-1-(2-fluorophenyl)-2-(methyl-amino)-2-oxoethyl)piperidin-3-yl)-3-(pyridin-4-yl)-1H-indazole-5-carboxamide]", "IC50": 175},
      {"smiles": "CNC(=O)C(c1ccccc1F)N1CCC[C@@H](NC(=O)c2ccc3[nH]nc(-c4ccncc4)c3c2)C1", "note": "(single isomer, unassigned) [drawing 502, N-((R)-1-((S or R)-1-(2-fluorophenyl)-2-(methyl-amino)-2-oxoethyl)piperidin-3-yl)-3-(pyridin-4-yl)-1H-indazole-5-carboxamide]", "IC50": 4.6},
      {"smiles": "NC(=O)C(c1c(F)cccc1F)N1CCC[C@@H](NC(=O)c2ccc3[nH]nc(-c4ccncc4)c3c2)C1", "note": "(single isomer, unassigned) [drawing 503, N-((R)-1-((R or S)-2-amino-1-(2,6-difluorophenyl)-2-oxoethyl)piperidin-3-yl)-3-(pyridin-4-yl)-1H-indazole-5-carboxamide]", "IC50": 222}
    ]},
    {"molecular_target": "fully phosphorylated, mouse aERK2 enzyme (Mus musculus (Mouse), UniProt P63085)", "assay": "Active ERK2 (aERK) IMAP-FP assay, condition 2", "assay_type": "biochemical", "settings": "active ERK2; read-out: aErk2 Ic50", "protocol": "as §1, §2", "units": {"IC50": "nM"}, "values": [
      {"smiles": "COc1cccc(F)c1CN1C[C@H](NC(=O)c2ccc3[nH]nc(-c4ccnc(C)c4)c3c2)CC[C@H]1C(=O)NC1CCCC1", "IC50": 105},
      {"smiles": "COc1cccc(F)c1CN1C[C@H](NC(=O)c2ccc3[nH]nc(-c4ccc5nn(C)cc5c4)c3c2)CC[C@H]1C(=O)Nc1nccs1", "IC50": 113},
      {"smiles": "CCN(CC)C(=O)[C@@H]1CC[C@@H](NC(=O)c2ccc3[nH]nc(-c4ccnc(C)c4)c3c2)CN1Cc1cccs1", "IC50": 28.2},
      {"smiles": "COc1cccc(F)c1CN1C[C@H](NC(=O)c2ccc3[nH]nc(-c4ccc5nn(C)cc5c4)c3c2)CC[C@H]1C(=O)N1CC(F)(F)C1", "IC50": 22.8},
      {"smiles": "[2H]C([2H])([2H])Oc1cccc(F)c1CN1C[C@H](NC(=O)c2ccc3[nH]nc(-c4ccc5nc(C)sc5c4)c3c2)CC[C@H]1C(=O)N1CCN(C(C)=O)CC1", "IC50": 63.1},
      {"smiles": "CCN(CC)C(=O)[C@@H]1CC[C@@H](NC(=O)c2ccc3[nH]nc(-c4ccc5nn(C)cc5c4)c3c2)CN1Cc1c(F)cccc1OC", "IC50": 39.4},
      {"smiles": "COc1cccc(F)c1CN1C[C@H](NC(=O)c2ccc3[nH]nc(-c4ccc5nn(C)cc5c4)c3c2)CC[C@H]1C(=O)N(C)C", "IC50": 15.9},
      {"smiles": "[2H]C([2H])([2H])Oc1cccc(F)c1CN1C[C@H](NC(=O)c2ccc3[nH]nc(-c4ccc5nc(C)sc5c4)c3c2)CC[C@H]1C(N)=O", "IC50": 3.4},
      {"smiles": "[2H]C([2H])([2H])Oc1cccc(F)c1CN1C[C@H](NC(=O)c2ccc3[nH]nc(-c4ccc5nc(C)sc5c4)c3c2)CC[C@H]1C(=O)N1CCN(C(=O)OC(C)(C)C)CC1", "IC50": 72.8},
      {"smiles": "[2H]C([2H])([2H])Oc1cccc(F)c1CN1C[C@H](NC(=O)c2ccc3[nH]nc(-c4ccnc(C)c4)c3c2)CC[C@H]1C(=O)N1CCN(C(=O)OC(C)(C)C)CC1", "IC50": 12.2}
    ]}
  ]
}
